Experimental data: patent US20200129597A1, “MODULATION OF FACTOR Xa INHIBITOR-MEDIATED BLOOD LOSS BY PARTIAL AND TRANSIENT ADMINISTRATION OF ANTIDOTE” (Portola Pharmaceuticals, Inc., priority 2012, published 2020)
Several values for one entry are separate records, joined by “and”; a condition that tells them apart may be missing. Identical values can stand only once. One block for each molecule: values may come before it.

Experiments:
[1] = Phase 2 trial: anti-fXa activity (chromogenic assay) after apixaban and r-Antidote; assay type: in vivo, human; conditions: apixaban 5 mg bid (11 doses)
Description: (§1) Pharmacodynamic and safety data are collected through Day 48 and PK through Day 10. A chromogenic assay was used to determine anti-fXa activity.

[2] = Total and unbound fXa inhibitor plasma concentration in rats; assay type: in vivo, rat; conditions: for fraction unbound: intravenous
Protocol: Total rivaroxaban plasma concentration at different time points from FIG. 10A was determined by LC-MS (solid line).
Similar experiments were carried out using betrixaban and apixaban infusion into anesthetized rats (FIG. 10B and FIG. 10C).
Blood sampling catheter patency was maintained by slow infusion of normal saline. Serial blood samples were obtained during the experimental time course. Total fXa inhibitor concentration was measured by HPLC with tandem mass spectrometry.

[3] = Phase 2 trial: plasma concentrations; conditions: apixaban 5 mg bid
Description: as §1

blood loss [4] = experiment: Mouse tail transection blood loss model; assay type: in vivo; conditions: for blood loss: 15 min, mean±SD, rivaroxaban 50 mg/kg oral, ASA ~100 mg/kg/day 5 days, treatment as labelled
Protocol: Mice (n=5-8/group) were first dosed orally with vehicle or aspirin at ˜100 mg/kg/day for 5 days. Rivaroxaban (50 mg/kg) or vehicle (5 mL/kg) was then dosed orally.
For the mouse tail transection blood loss model, mice (male, C57BL/6, Charles River) were first treated with aspirin at ˜100 mg/kg/day for 5 days via drinking water.

[5] = Total and free rivaroxaban concentration in rabbit plasma; assay type: in vivo; conditions: for concentration at 30 min: male, NZW, rabbit, plasma
Protocol: (§2) Anesthetized rabbits were administered vehicle or 1 mg/kg rivaroxaban via IV bolus injection. […] Total rivaroxaban concentration in plasma was measured by LC-MS/MS. […] Anti-fXa activity was measured using a modified chromogenic LMW heparin kit. PT and aPTT was measured using commercial reagents (HemosIL).
(§3) Rivaroxaban (1 mg/kg) or vehicle was dosed to anesthetized rabbits by IV bolus over 2 minutes via marginal ear vein catheter. […] Serial blood samples were collected at 0, 30, 35, and 50 minutes post rivaroxaban. Measurements included reduction in blood loss, decrease in unbound rivaroxaban in the plasma using equilibrium dialysis method, anti-fXa activity, PT and aPTT. The method for measuring PT is described previously in Example 6.

blood loss [6] = experiment: Rabbit liver laceration blood loss model; assay type: in vivo; conditions: for increase in blood loss compared with vehicle: rivaroxaban 1 mg/kg IV bolus
Protocol: Rivaroxaban (1 mg/kg) or vehicle was dosed by IV bolus over 2 minutes via marginal ear vein catheter. […] Riva=Rivaroxaban; g=gram
as §2
Anesthetized rabbits were administered vehicle or 1 mg/kg rivaroxaban via IV bolus injection. […] As in the rodent model, total and free rivaroxaban concentration in plasma, anti-fXa activity and PT and activated partial thromboplastin times (aPTT) was measured.
as §3

[7] = Total rivaroxaban concentration in mouse plasma; conditions: following r-Antidote administration (Treat-V)
prothrombin time (PT) [8] = experiment: Prothrombin time in rabbit liver laceration model; assay type: in vivo; conditions: for prolongation of PT: rivaroxaban 1 mg/kg, 30 min time point
Protocol: as §2
(§4) For human in vitro and rat ex vivo experiments, PT was measured using MLA Electra 800 automatic coagulation timer. Innovin was automatically dispensed to plasma samples (100 μL) per manufacturer's instructions. […] For rabbit experiments, PT and aPTT were measured using a Beckman Coulter ACL Elite instrument with HemosIL reagents (available commercially from Instrumentation Laboratories). Whole blood INR (International Normalized Ratio) for animal samples were measured by Hemchron Jr. Signature Cartridges (International Technidyne Corporation) according to manufacturer's instructions.
as §3

prothrombin time (PT) [9] = experiment: Prothrombin time in human plasma in vitro; assay type: biochemical; conditions: rivaroxaban 1 μM
Protocol: as §4

[10] = system: activated partial thromboplastin time (aPTT); experiment: Activated partial thromboplastin time in rabbit liver laceration model; assay type: in vivo; conditions: for prolongation of aPTT: rivaroxaban 1 mg/kg, 30 min time point
Protocol: as §2, §4, §3

blood loss [11] = experiment: Rat tail transection model, r-Antidote bolus plus infusion after enoxaparin or fondaparinux; assay type: in vivo; conditions: fondaparinux 25 mg/kg; protamine 0.9 mg/rat IV bolus; p=0.39
Protocol: Enoxaparin (4.5 mg/kg) or vehicle was dosed by IV bolus over 5 min, followed by treatment with vehicle or two different doses of r-Antidotc (2 mg/rat bolus plus 2 mg/hr infusion and 4 mg/rat bolus plus 4 mg/hr infusion) starting at 10 min. […] Protamine was dosed as an IV bolus only (0.9 mg/rat). […] Anti-fXa activity was normalized to the activity of Treat-II at 5 min time point. *** P-value (Treat-III vs. Treat-II)≤0.0001.
The collected blood samples were processed by freezing the samples at −80° C. to lyse erythrocytes. Hemoglobin concentration and corresponding blood volume were quantified spectrophotometrically (Absorbance at 490 nm) from a standard curve constructed with known volumes of blood.

blood loss [12] = experiment: Rat tail transection treatment model, r-Antidote given after bleeding initiated; assay type: in vivo; conditions: enoxaparin-treated group
Protocol: In a pilot study using this antidote treatment model, anesthetized rats were intravenously (IV) administered either vehicle or enoxaparin (4.5 mg/kg, IV bolus) followed by tail transection at 5 min post-dosing.
Anesthetized rats were administered enoxaparin (4.5 mg/kg) or vehicle by I.V. bolus injection followed by tail transection (2 mm from tip) 5 minutes later. […] The tip of the tail was placed in physiologic saline at 37° C. and blood collected for an additional 45 minutes after tail transection. Blood was lysed by diluting in water and freezing at −80° C. overnight. […] Anti-fXa activity of enoxaparin was measured using a modified chromogenic LMW heparin kit. Tissue factor (TF)-initiated thrombin generation was carried out in human plasma using a fluorogenic thrombin substrate by measurement of change of relative fluorescence unit (RFU) for 10 min following initiation of the reaction.

[13] = upon administration of r-Antidote
[14] = 30 minutes post rivaroxaban (before treatment)

Molecule: COc1ccc(-n2nc(C(N)=O)c3c2C(=O)N(c2ccc(N4CCCCC4=O)cc2)CC3)cc1 [apixaban]
- time of peak anti-fXa activity post last apixaban dose [1]: 3 h
- fraction unbound ([2]; male, SD, rat, plasma): 0.0005
- concentration at 30 min ([2]; male, SD, rat, plasma, iv): 1400 nM
- fraction unbound at 30 min ([2]; male, SD, rat, plasma, iv): 0.015
- concentration at 30 min [2, 13]: 4200 nM
- mean apixaban plasma concentration [3]: 474 nM

Molecule: CC(=O)Oc1ccccc1C(=O)O [aspirin]
- blood loss (blood loss [4]): 118 ± 71 µL

- fraction unbound ([2]; male, SD, rat, plasma): 0.003
- concentration at 30 min ([2]; male, SD, rat, plasma, iv): 200 nM
- fraction unbound at 30 min ([2]; male, SD, rat, plasma, iv): 0.41
- concentration at 30 min [2, 13]: 2000 nM
Molecule: COc1ccc(NC(=O)c2ccc(C(=N)N(C)C)cc2)c(C(=O)Nc2ccc(Cl)cn2)c1 [betrixaban]

- free (non-protein bound) fraction of rivaroxaban in plasma ([5]; after r-Antidote 75 mg/rabbit): < 0.5%
- free (non-protein bound) fraction of rivaroxaban in plasma ([5]; before r-Antidote): 26%
- concentration at 30 min ([5]; intravenous, 1 mg/kg, just prior to treatment, dose group as labelled): 1200 nM
- concentration at 30 min ([5]; 30 min time point, 1 mg/kg IV): 1650 nM
- concentration at 30 min ([2]; male, SD, rat, plasma, iv): 1400 nM
- fraction unbound at 30 min ([2]; male, SD, rat, plasma, iv): 0.022
- concentration at 30 min [2, 13]: 1900 nM
- increase of total rivaroxaban concentration in plasma [7]: 7.8 fold
Molecule: O=C(NC[C@H]1CN(c2ccc(N3CCOCC3=O)cc2)C(=O)O1)c1ccc(Cl)s1 [rivaroxaban]
- blood loss due to rivaroxaban anticoagulation as share of total blood volume (blood loss [6]; rivaroxaban 1 mg/kg): approximately 10%
- increase in blood loss compared with vehicle (blood loss [6]): 3.2 fold and > 3 fold
- increase in blood loss compared with vehicle (blood loss [6]; listed as Rivaroxaban): 3.2 fold
- blood loss (blood loss [6]; rivaroxaban group, 15 min collection): 22.7±9.3 grams
- Prothrombin Times (prothrombin time (PT) [8]; 0 minutes post rivaroxaban): 6.2 ± 0.4 s
- Prothrombin Times (prothrombin time (PT) [8]; [14]): 15.8 ± 1.5 s
- Prothrombin Times (prothrombin time (PT) [8]; 35 minutes post rivaroxaban): 15.0 ± 1.6 s
- Prothrombin Times (prothrombin time (PT) [8]; 50 minutes post rivaroxaban): 13.8 ± 1.3 s
- prolongation of PT (prothrombin time (PT) [8]): 2.3 fold and 2.5 fold
- prolongation of PT (prothrombin time (PT) [8]; listed as Rivaroxaban): 2.3 fold
- effect on prothrombin time (prothrombin time (PT) [9]): prolongation of prothrombin time
- Activated Partial Thromboplastin Times ([10]; 0 minutes post rivaroxaban): 28 ± 5 s
- Activated Partial Thromboplastin Times [10, 14]: 49 ± 8 s
- Activated Partial Thromboplastin Times ([10]; 35 minutes post rivaroxaban): 48 ± 8 s
- Activated Partial Thromboplastin Times ([10]; 50 minutes post rivaroxaban): 48 ± 8 s
- prolongation of aPTT [10]: 1.9 fold and 1.8 fold
- prolongation of aPTT ([10]; listed as Rivaroxaban): 1.9 fold
- blood loss (blood loss [4]): 216 ± 222 µL
- increase in blood loss (blood loss [4]; ASA-treated mice (~100 mg/kg/day, 5 days), single oral Riva 50 mg/kg, Riva+ASA vs. ASA): 3.4 fold

Molecule: Protamine
- effect on fondaparinux anticoagulation (blood loss [11]): no statistically significant effect

Molecule: enoxaparin
- share of blood loss occurring within first 10 min prior to treatment (blood loss [12]): ~26%
- total blood loss as share of animal's total blood volume (blood loss [12]): about 5%
